In PMC12865225 (Clinical and Translational Science, 2026):

Legend:
[1] = target: T1, OATP2B1 (Homo sapiens, UniProt O94956); assay: Uptake transport assay in OATP2B1-expressing HEK293 cells; type: cell-based; conditions: for transport by OATP2B1: 2 and 50 μM, 10 min; for Vmax (pmol/106 cells/min) OATP2B1: uptake, 2 min
T1 construct: expressed in transfected cells; host or cells: HEK293 (recombinant baculovirus-mediated transduction)
T1 sequence (O94956 1-709): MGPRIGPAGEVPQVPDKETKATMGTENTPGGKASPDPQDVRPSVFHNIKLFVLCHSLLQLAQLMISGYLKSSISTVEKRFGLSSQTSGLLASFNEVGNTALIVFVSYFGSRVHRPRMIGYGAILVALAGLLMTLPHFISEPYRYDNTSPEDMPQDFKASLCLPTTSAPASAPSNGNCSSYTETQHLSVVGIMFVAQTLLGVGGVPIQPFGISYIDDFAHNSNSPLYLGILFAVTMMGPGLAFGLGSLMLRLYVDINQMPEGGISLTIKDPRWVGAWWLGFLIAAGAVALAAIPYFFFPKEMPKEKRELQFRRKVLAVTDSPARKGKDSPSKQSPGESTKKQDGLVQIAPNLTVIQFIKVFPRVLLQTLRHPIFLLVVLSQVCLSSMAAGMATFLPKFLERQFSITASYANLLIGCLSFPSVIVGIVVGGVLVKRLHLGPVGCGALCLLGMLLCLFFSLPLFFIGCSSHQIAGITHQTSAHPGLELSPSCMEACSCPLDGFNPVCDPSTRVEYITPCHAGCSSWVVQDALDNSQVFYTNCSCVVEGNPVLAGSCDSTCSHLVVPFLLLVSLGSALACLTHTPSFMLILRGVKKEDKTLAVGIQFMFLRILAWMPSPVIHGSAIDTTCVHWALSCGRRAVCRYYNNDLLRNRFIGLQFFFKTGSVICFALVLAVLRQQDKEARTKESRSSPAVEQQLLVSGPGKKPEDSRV
Experimental: The human transporters OATP1B1, OATP1B3, OATP2B1, and OAT1‐OAT4 and a negative control protein (enhanced yellow fluorescent protein, eYFP) were transiently expressed in human embryonic kidney 293 (HEK293) cells by recombinant baculovirus‐mediated transduction. Baculoviruses carrying human genes for the transporters were prepared as reported previously. HEK293 cells were cultured in DMEM containing 10% fetal bovine serum at 37°C and 5% CO2 and passaged two to three times per week. For the transport studies, 0.05 × 10^6 cells for 48‐well plates (OATPs) or 0.06 × 10^6 cells for 24‐well plates (OATs) were seeded onto cell‐culture treated well plates coated with poly‐D‐lysine. After 1 day, cells were transduced to produce recombinant proteins by changing media to DMEM containing 30 μL (48‐well plates) or 60 μL (24‐well plates) of recombinant baculovirus and 3 mM (OATs) or 5 mM (OATPs) sodium butyrate in a total media volume of 500 μL. The cells were cultured for a further 2 days before the transport assays.
For the transport studies, media were removed and cells were washed once with warm transport uptake buffer (TP‐buffer—pH 7.4 HBSS with 25 mM HEPES and 4 mM sodium bicarbonate). Each experiment included triplicate (OATP) or duplicate (OAT) samples for every test condition. The uptake was started by removing liquid from wells and applying warm TP‐buffer (200 μL for 24‐well plates or 125 μL for 48‐well plates) containing a test compound to cells. Transport assays were terminated after a pre‐specified incubation time (reported in figure legends) by removing substrate solution and washing cells three times with cold TP‐buffer (300 μL for 48‐well plates and 400 μL for 24‐well plates). For the liquid chromatography mass spectrometry (LC–MS) analysis, compounds were extracted from cells with 125 μL (48‐well plates) or 250 μL (24‐well plates) of an ultrapure‐water solution containing 75% methanol and 0.1% formic acid, shaking at 250 RPM for 30 min. […] Samples were transferred to well plates, centrifuged at 3000 g for 30 min, and transferred to a new well plate for the analysis.
Equation (2) (the Michaelis–Menten equation) was fit to the transport kinetic assay data. […] (2) Uptake=Vmax×S/Km+S

[2] = target: T2, BCRP (Homo sapiens, UniProt Q9UNQ0); assay: Efflux transport assay in BCRP HEK293 membrane vesicles; type: biochemical; conditions: 5 and 50 µM
T2 construct: made in house; host or cells: membrane vesicles from HEK293 cells expressing the transporter
T2 sequence (Q9UNQ0 1-655): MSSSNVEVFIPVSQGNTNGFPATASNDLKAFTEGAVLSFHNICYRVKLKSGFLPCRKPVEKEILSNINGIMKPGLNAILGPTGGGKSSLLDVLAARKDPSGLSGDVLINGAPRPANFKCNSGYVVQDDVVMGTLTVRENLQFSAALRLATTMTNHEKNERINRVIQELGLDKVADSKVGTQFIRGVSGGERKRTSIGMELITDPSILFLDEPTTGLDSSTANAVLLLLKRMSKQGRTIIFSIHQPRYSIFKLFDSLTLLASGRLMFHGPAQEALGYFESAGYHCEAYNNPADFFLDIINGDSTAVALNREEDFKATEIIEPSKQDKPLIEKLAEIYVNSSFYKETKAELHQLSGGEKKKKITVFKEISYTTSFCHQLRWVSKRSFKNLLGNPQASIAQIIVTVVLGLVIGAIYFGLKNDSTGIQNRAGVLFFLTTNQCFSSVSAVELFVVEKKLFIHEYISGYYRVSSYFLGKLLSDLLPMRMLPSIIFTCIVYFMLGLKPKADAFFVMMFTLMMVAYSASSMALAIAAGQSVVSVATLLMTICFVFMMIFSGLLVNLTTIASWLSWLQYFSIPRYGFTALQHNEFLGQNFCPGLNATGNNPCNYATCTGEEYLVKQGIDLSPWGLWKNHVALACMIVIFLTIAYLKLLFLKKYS
Experimental: Membrane vesicles, 5 μL (7.5 μg of total protein), prepared as previously reported, were aliquoted to wells of a conical‐shaped 96‐well plate. The plate was incubated for 10 min at +37°C before the initiation of transport by adding 25 μL of TS‐buffer (10 mM Tris, 250 mM sucrose, pH adjusted to 7.4 with HEPES) containing magnesium chloride (10 mM final in the reaction), adenosine triphosphate (ATP) or adenosine monophosphate (AMP), 4 mM final in the reaction, and the transporter substrate and inhibitor. Each experiment included triplicate samples for both ATP and AMP samples. The concentrations of rosuvastatin and N‐methyl‐quinidine were 1 μM in the BCRP and P‐gp vesicle inhibition assays, respectively. […] The transport reactions were quenched by adding 200 μL of cold TS‐buffer to each well and transferring the samples to a 96‐multiwell 1.0 μm glass fiber filter plate (Merck Millipore, Darmstadt, Germany) kept under vacuum. Wells were further washed four times with cold TS‐buffer, after which the plate was dried under vacuum. The compounds were eluted from the plate by applying 100 μL of 75% methanol containing 0.1% formic acid to each well and incubating at 250 RPM for 30 min before centrifuging the samples to an analysis plate at 2800 g for 2 min. For the rosuvastatin samples, the elution solvent contained rosuvastin‐d6 as the internal standard. […]

| SMILES | transport by OATP2B1 [1] | Vmax (pmol/106 cells/min) OATP2B1 [1] [pmol/106 cells/min] | transport by BCRP [2] |
| --- | --- | --- | --- |
| Cc1onc(-c2c(Cl)cccc2Cl)c1C(=O)N[C@@H]1C(=O)N2[C@@H]1SC(C)(C)[C@@H]2C(=O)O [Dicloxacillin] | transported | 61.5 | did not transport |
| Cc1onc(-c2c(F)cccc2Cl)c1C(=O)N[C@@H]1C(=O)N2[C@@H]1SC(C)(C)[C@@H]2C(=O)O [Flucloxacillin] | transported | 74.9 | did not transport |
